Data published in the NIST ThermoML archive (doi:10.1016/j.fluid.2009.02.001).
Where “and” joins values, the source holds several entries; their conditions need not be identical. Identical values can stand only once. Numbers after ± are expanded uncertainties.

Key:
[1] = Liquid
[2] = Molar enthalpy of transition or fusion; conditions: Crystal; DSC

CC(=O)Nc1ccc(Br)cc1 [N-(4-bromophenyl)acetamide]
vapor or sublimation pressure ([1]; 444.2 K, Nonisothermal thermogravimetry): 0.304 ± 0.041 kPa | vapor or sublimation pressure ([1]; 446.2 K, Isothermal thermogravimetry): 0.384 ± 0.039 kPa and 0.382 ± 0.039 kPa | vapor or sublimation pressure ([1]; 446.3 K, Isothermal thermogravimetry): 0.353 ± 0.046 kPa | vapor or sublimation pressure ([1]; 446.4 K, Nonisothermal thermogravimetry): 0.366 ± 0.043 kPa | vapor or sublimation pressure ([1]; 447.1 K, Isothermal thermogravimetry): 0.381 ± 0.053 kPa | vapor or sublimation pressure ([1]; 447.7 K, Isothermal thermogravimetry): 0.394 ± 0.044 kPa | vapor or sublimation pressure ([1]; 448.2 K, Isothermal thermogravimetry): 0.422 ± 0.045 kPa | vapor or sublimation pressure ([1]; 448.4 K, Nonisothermal thermogravimetry): 0.398 ± 0.045 kPa | vapor or sublimation pressure ([1]; 449.4 K, Isothermal thermogravimetry): 0.415 ± 0.042 kPa | vapor or sublimation pressure ([1]; 449.9 K, Isothermal thermogravimetry): 0.443 ± 0.045 kPa | vapor or sublimation pressure ([1]; 450.2 K, Isothermal thermogravimetry): 0.453 ± 0.046 kPa | vapor or sublimation pressure ([1]; 450.2 K, Nonisothermal thermogravimetry): 0.443 ± 0.065 kPa | vapor or sublimation pressure ([1]; 451.3 K, Isothermal thermogravimetry): 0.447 ± 0.051 kPa | vapor or sublimation pressure ([1]; 452.1 K, Isothermal thermogravimetry): 0.489 ± 0.054 kPa | vapor or sublimation pressure ([1]; 452.2 K, Isothermal thermogravimetry): 0.496 ± 0.055 kPa | vapor or sublimation pressure ([1]; 452.3 K, Nonisothermal thermogravimetry): 0.579 ± 0.072 kPa | vapor or sublimation pressure ([1]; 453.4 K, Isothermal thermogravimetry): 0.528 ± 0.054 kPa | vapor or sublimation pressure ([1]; 453.6 K, Isothermal thermogravimetry): 0.494 ± 0.052 kPa | vapor or sublimation pressure ([1]; 454.2 K, Isothermal thermogravimetry): 0.539 ± 0.056 kPa | vapor or sublimation pressure ([1]; 454.4 K, Nonisothermal thermogravimetry): 0.621 ± 0.063 kPa | vapor or sublimation pressure ([1]; 455.3 K, Isothermal thermogravimetry): 0.54 ± 0.058 kPa | vapor or sublimation pressure ([1]; 455.9 K, Isothermal thermogravimetry): 0.584 ± 0.062 kPa | vapor or sublimation pressure ([1]; 456.3 K, Isothermal thermogravimetry): 0.606 ± 0.064 kPa | vapor or sublimation pressure ([1]; 456.4 K, Nonisothermal thermogravimetry): 0.611 ± 0.065 kPa | vapor or sublimation pressure ([1]; 457.6 K, Isothermal thermogravimetry): 0.605 ± 0.064 kPa | vapor or sublimation pressure ([1]; 457.8 K, Isothermal thermogravimetry): 0.634 ± 0.067 kPa | vapor or sublimation pressure ([1]; 458.2 K, Isothermal thermogravimetry): 0.65 ± 0.068 kPa | vapor or sublimation pressure ([1]; 458.3 K, Nonisothermal thermogravimetry): 0.712 ± 0.085 kPa | vapor or sublimation pressure ([1]; 459.3 K, Isothermal thermogravimetry): 0.67 ± 0.071 kPa | vapor or sublimation pressure ([1]; 459.5 K, Isothermal thermogravimetry): 0.693 ± 0.073 kPa | vapor or sublimation pressure ([1]; 460.2 K, Isothermal thermogravimetry): 0.732 ± 0.077 kPa | vapor or sublimation pressure ([1]; 460.3 K, Nonisothermal thermogravimetry): 0.793 ± 0.09 kPa | vapor or sublimation pressure ([1]; 461.5 K, Isothermal thermogravimetry): 0.724 ± 0.075 kPa | vapor or sublimation pressure ([1]; 462 K, Isothermal thermogravimetry): 0.777 ± 0.08 kPa | vapor or sublimation pressure ([1]; 462.2 K, Isothermal thermogravimetry): 0.793 ± 0.082 kPa | vapor or sublimation pressure ([1]; 462.2 K, Nonisothermal thermogravimetry): 0.882 ± 0.097 kPa | vapor or sublimation pressure ([1]; 463.5 K, Isothermal thermogravimetry): 0.793 ± 0.082 kPa | vapor or sublimation pressure ([1]; 463.6 K, Isothermal thermogravimetry): 0.84 ± 0.086 kPa | vapor or sublimation pressure ([1]; 464.2 K, Isothermal thermogravimetry): 0.862 ± 0.092 kPa | vapor or sublimation pressure ([1]; 464.3 K, Nonisothermal thermogravimetry): 0.953 ± 0.1 kPa | vapor or sublimation pressure ([1]; 465.2 K, Isothermal thermogravimetry): 0.855 ± 0.089 kPa | vapor or sublimation pressure ([1]; 465.9 K, Isothermal thermogravimetry): 0.911 ± 0.094 kPa | vapor or sublimation pressure ([1]; 466.1 K, Isothermal thermogravimetry): 0.943 ± 0.1 kPa | vapor or sublimation pressure ([1]; 466.2 K, Nonisothermal thermogravimetry): 0.998 ± 0.11 kPa | vapor or sublimation pressure ([1]; 467.1 K, Isothermal thermogravimetry): 0.927 ± 0.1 kPa | vapor or sublimation pressure ([1]; 468.2 K, Isothermal thermogravimetry): 1.011 ± 0.12 kPa | vapor or sublimation pressure ([1]; 468.3 K, Isothermal thermogravimetry): 1.006 ± 0.11 kPa | vapor or sublimation pressure ([1]; 468.3 K, Nonisothermal thermogravimetry): 1.147 ± 0.12 kPa | vapor or sublimation pressure ([1]; 469.2 K, Isothermal thermogravimetry): 1.005 ± 0.11 kPa | vapor or sublimation pressure ([1]; 470.2 K, Isothermal thermogravimetry): 1.098 ± 0.12 kPa and 1.075 ± 0.12 kPa | vapor or sublimation pressure ([1]; 470.3 K, Nonisothermal thermogravimetry): 1.074 ± 0.12 kPa | vapor or sublimation pressure ([1]; 471.1 K, Isothermal thermogravimetry): 1.086 ± 0.12 kPa | vapor or sublimation pressure ([1]; 472.1 K, Isothermal thermogravimetry): 1.208 ± 0.12 kPa | vapor or sublimation pressure ([1]; 472.2 K, Nonisothermal thermogravimetry): 1.398 ± 0.17 kPa | vapor or sublimation pressure ([1]; 472.4 K, Isothermal thermogravimetry): 1.175 ± 0.14 kPa | vapor or sublimation pressure ([1]; 473.2 K, Isothermal thermogravimetry): 1.17 ± 0.12 kPa | vapor or sublimation pressure ([1]; 474.1 K, Isothermal thermogravimetry): 1.285 ± 0.13 kPa | vapor or sublimation pressure ([1]; 474.3 K, Nonisothermal thermogravimetry): 1.482 ± 0.15 kPa | vapor or sublimation pressure ([1]; 475.3 K, Isothermal thermogravimetry): 1.239 ± 0.13 kPa | vapor or sublimation pressure ([1]; 476.2 K, Isothermal thermogravimetry): 1.381 ± 0.14 kPa | vapor or sublimation pressure ([1]; 476.2 K, Nonisothermal thermogravimetry): 1.497 ± 0.17 kPa | vapor or sublimation pressure ([1]; 478.3 K, Nonisothermal thermogravimetry): 1.779 ± 0.19 kPa | vapor or sublimation pressure ([1]; 480.2 K, Nonisothermal thermogravimetry): 1.749 ± 0.18 kPa | vapor or sublimation pressure ([1]; 482.3 K, Nonisothermal thermogravimetry): 1.937 ± 0.22 kPa | vapor or sublimation pressure ([1]; 484.3 K, Nonisothermal thermogravimetry): 2.151 ± 0.23 kPa | vapor or sublimation pressure ([1]; 486.2 K, Nonisothermal thermogravimetry): 2.296 ± 0.24 kPa | vapor or sublimation pressure ([1]; 488.3 K, Nonisothermal thermogravimetry): 2.466 ± 0.27 kPa | vapor or sublimation pressure ([1]; 490.2 K, Nonisothermal thermogravimetry): 2.741 ± 0.29 kPa | vapor or sublimation pressure ([1]; 492.2 K, Nonisothermal thermogravimetry): 2.83 ± 0.3 kPa | vapor or sublimation pressure ([1]; 494.3 K, Nonisothermal thermogravimetry): 3.134 ± 0.34 kPa | vapor or sublimation pressure ([1]; 496.2 K, Nonisothermal thermogravimetry): 3.347 ± 0.35 kPa | vapor or sublimation pressure ([1]; 498.3 K, Nonisothermal thermogravimetry): 3.604 ± 0.38 kPa | vapor or sublimation pressure ([1]; 500.3 K, Nonisothermal thermogravimetry): 3.812 ± 0.41 kPa | vapor or sublimation pressure ([1]; 502.2 K, Nonisothermal thermogravimetry): 4.149 ± 0.44 kPa | vapor or sublimation pressure ([1]; 504.3 K, Nonisothermal thermogravimetry): 4.419 ± 0.46 kPa | vapor or sublimation pressure ([1]; 506.2 K, Nonisothermal thermogravimetry): 4.593 ± 0.48 kPa | vapor or sublimation pressure ([1]; 508.2 K, Nonisothermal thermogravimetry): 4.944 ± 0.53 kPa | vapor or sublimation pressure ([1]; 510.2 K, Nonisothermal thermogravimetry): 5.307 ± 0.55 kPa | vapor or sublimation pressure ([1]; 512.2 K, Nonisothermal thermogravimetry): 5.584 ± 0.57 kPa | vapor or sublimation pressure ([1]; 514.4 K, Nonisothermal thermogravimetry): 5.847 ± 0.61 kPa | vapor or sublimation pressure ([1]; 516.2 K, Nonisothermal thermogravimetry): 6.243 ± 0.66 kPa | Molar enthalpy of transition or fusion [2]: 6.21 ± 0.478 kcal/mol
